According to paper PMC3516885 (Chembiochem : a European journal of chemical biology, 2012):
Positions of bridges follow the written chain, without caps; N, C: chain ends. Residues, ends and D or L forms follow the SMILES beside them.

Columns and labels:
[1] = Human serum stability assay; format: in vitro ADME; conditions: for peptide remaining after 24 hours in human serum (in words): 0.9 mg/mL, buffered human serum, 37 deg. C; for remaining at 7 h, 0.9 mg/mL: male, human, human type-AB serum diluted 9:1 in phosphate-buffered saline
[2] = target: Grb2-SH2 (Homo sapiens, UniProt P62993); format: binding; conditions: 5 nM pYVNV ligand, 0.91 μM Grb2-SH2
Grb2-SH2, sequence (P62993 60-152 limits assumed): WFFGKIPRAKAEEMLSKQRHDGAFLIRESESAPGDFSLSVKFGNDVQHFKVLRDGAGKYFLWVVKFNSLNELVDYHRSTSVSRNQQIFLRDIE

Structure (SMILES) | peptide remaining after 24 hours in human serum (in words) [1] | remaining at 7 h, 0.9 mg/mL [1] | inhibition of Grb2-SH2 in the competition assay (in words) [2]
CSCC[C@@H]1NC(=O)CNC(=O)[C@H](C(C)C)NC(=O)[C@H](CC(N)=O)NC(=O)[C@H](CCC(=O)O)NC(=O)[C@H](Cc2ccc(O)cc2)NC(=O)[C@H](CC(C)C)NC(=O)[C@H](CCC(=O)O)NC(=O)[C@@H](N)CSSC[C@@H](C(N)=O)NC(=O)[C@H](Cc2ccc(O)cc2)NC1=O [G1, reference compound] (H-CELYENVGMYC-NH2; disulfide 1-11; N-terminus and C-terminus assumed) | no detectable amounts of peptide remaining | < 30% | –
CSCC[C@@H]1NC(=O)CNC(=O)[C@H](C(C)C)NC(=O)[C@H](CC(N)=O)NC(=O)[C@@H]2CCCN2C(=O)[C@H](Cc2ccc(O)cc2)NC(=O)[C@H](CC(C)C)NC(=O)[C@H](CCC(=O)O)NC(=O)[C@@H](N)CSSC[C@@H](C(N)=O)NC(=O)[C@H](Cc2ccc(O)cc2)NC1=O [G1-Pro] (H-CELYPNVGMYC-NH2; disulfide 1-11; N-terminus and C-terminus assumed) | no detectable amounts of peptide remaining | < 30% | little inhibitory activity
